The results in this text go back to ChEMBL document CHEMBL1138693, “Synthesis and biological evaluation of piperazine-based derivatives as inhibitors of plasminogen activator inhibitor-1 (PAI-1)” (Bioorg Med Chem Lett, 2004).

Data set [1] deals with Plasminogen activator inhibitor 1 (Homo sapiens, UniProt P05121). Put plainly: Inhibitory concentration against plasminogen activator inhibitor-1 (PAI-1).
The nature of data set [2]: Clearance of compound in rats after intravenous administration. Format: ADME, organism-based. Particulars: rat, in vivo.
Data set [3] is described as follows: Volume of distribution of compound in rats after intravenous administration. Format: ADME, organism-based. As to conditions: rat, in vivo, read-out: Vdss.
Data set [4] is described as follows: […] of compound in rats after peroral administration. In kind it is ADME, organism-based. Particulars: rat, in vivo, po.
Data set [5] can be described thus: Bioavailability in rat. In kind it is ADME, organism-based. Particulars: in vivo.
The nature of data set [6]: Half-life period of compound in rats after peroral administration. Format: ADME, organism-based. Particulars: rat, in vivo, po.
Data set [7] is described as follows: Maximal concentration in rats after peroral administration. Format: ADME, organism-based. More on the design: route oral. Particulars: rat, in vivo, po.

Molecules are shown by their SMILES.

Sequence of Plasminogen activator inhibitor 1 (P05121 whole entry): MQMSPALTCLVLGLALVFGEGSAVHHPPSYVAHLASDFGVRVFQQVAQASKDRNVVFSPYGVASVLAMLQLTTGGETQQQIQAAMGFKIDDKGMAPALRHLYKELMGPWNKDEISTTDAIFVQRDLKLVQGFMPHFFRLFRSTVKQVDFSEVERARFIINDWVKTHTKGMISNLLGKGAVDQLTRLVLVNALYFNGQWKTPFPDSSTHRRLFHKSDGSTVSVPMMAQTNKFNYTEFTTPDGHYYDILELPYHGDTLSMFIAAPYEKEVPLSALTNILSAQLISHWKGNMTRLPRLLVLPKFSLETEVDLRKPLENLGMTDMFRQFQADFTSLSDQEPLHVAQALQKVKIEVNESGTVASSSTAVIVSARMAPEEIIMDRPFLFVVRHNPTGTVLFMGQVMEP

As a reminder, the IC50 is the concentration at which inhibition is half-maximal. For the compound `O=C(O)c1ccc(CNc2ccc([N+](=O)[O-])c(N3CCN(c4cccc(C(F)(F)F)c4)CC3)c2)cc1`, the IC50 in data set [1] was 6.7 µM.
For the compound `O=C(O)c1ccc(Oc2cc(N3CCN(c4cccc(C(F)(F)F)c4)CC3)c([N+](=O)[O-])cc2C(F)(F)F)cc1`, in data set [1], the 50% inhibitory concentration (IC50) came out at 2.1 µM.
`O=C(O)c1cccc(Oc2cc(N3CCN(c4cccc(C(F)(F)F)c4)CC3)c([N+](=O)[O-])cc2C(F)(F)F)c1` yielded an IC50 in data set [1] of 3.7 µM.
For `O=C(O)c1ccccc1Oc1ccc([N+](=O)[O-])cc1CNc1ccc(N2CCN(c3cccc(C(F)(F)F)c3)CC2)c(C(F)(F)F)c1`, half-maximal inhibition in data set [1] (IC50) required 1 µM.
Take `O=C(O)C1CCN(c2cc(N3CCN(c4ccc(C(F)(F)F)cc4)CC3)c([N+](=O)[O-])cc2C(F)(F)F)CC1`: the IC50 in data set [1] stood at 1.1 µM. The IC50 values of the last two compounds are within 1.5-fold of each other.
Still for that read-out and setting: for `O=C(O)C1CCN(c2cc(N3CCN(c4ccc(C(F)(F)F)cn4)CC3)c([N+](=O)[O-])cc2C(F)(F)F)CC1` the value was 3.2 µM; for `CC(C)[C@@H]1CC[C@@H](C)C[C@H]1OCC(=O)N1CCN(c2cc(N3CCC(C(=O)O)CC3)c(C(F)(F)F)cc2[N+](=O)[O-])CC1`, > 15 µM; for `O=C(O)CCNc1cc(N2CCN(c3cccc(C(F)(F)F)c3)CC2)c([N+](=O)[O-])cc1C(F)(F)F`, 0.9 µM.
Same read-out and setting: for `O=C(O)C1CCN(c2cc(N3CCN(C(=O)c4cccc(C(F)(F)F)c4)CC3)c([N+](=O)[O-])cc2C(F)(F)F)CC1` the value was 5 µM; for `O=C(O)C1CCN(c2cc(N3CCN(Cc4cccc(C(F)(F)F)c4)CC3)c([N+](=O)[O-])cc2C(F)(F)F)CC1`, 4.3 µM.
Regarding `O=C(O)C1CCN(c2cccc(F)c2CNc2ccc(N3CCN(c4cccc(C(F)(F)F)c4)CC3)c(C(F)(F)F)c2)CC1`, in data set [1], the IC50 is 1 µM.
The same measure, in the same setting: for `O=C(O)c1ccc(CNc2ccc(N3CCN(c4cccc(C(F)(F)F)c4)CC3)c(C(F)(F)F)c2)cc1` the value was 1.7 µM; for `O=C(O)C1CCN(c2cc(N3CCN(C(=O)Nc4cccc(C(F)(F)F)c4)CC3)c([N+](=O)[O-])cc2C(F)(F)F)CC1`, 3.5 µM.
In the case of `O=C(O)c1ccc(CNc2nc(N3CCN(c4cccc(C(F)(F)F)c4)CC3)ccc2[N+](=O)[O-])cc1`, the midpoint of inhibition in data set [1], the IC50, lay at 3.4 µM.
Still for that read-out and setting: for `O=C(O)C1CCN(c2cccc(C(F)(F)F)c2CNc2ccc(N3CCN(c4cccc(C(F)(F)F)c4)CC3)c(C(F)(F)F)c2)CC1` the value was 1.7 µM; for `O=C(O)c1ccc(CNc2cc(N3CCN(c4cccc(C(F)(F)F)c4)CC3)c([N+](=O)[O-])cc2[N+](=O)[O-])cc1`, 1.4 µM.
For the compound `O=C(O)c1ccc(CNc2ccc([N+](=O)[O-])c(N3CCN(c4cccc(C(F)(F)F)c4)CC3)n2)cc1`, the IC50 in data set [1] was determined as 6.1 µM.
`O=C(O)C1CCCN1c1c([N+](=O)[O-])ccc(F)c1CNc1ccc(N2CCN(c3cccc(C(F)(F)F)c3)CC2)c(C(F)(F)F)c1` (stereo not given) displayed an IC50 in data set [1] of 1.4 µM.
Same read-out and setting: for `O=[N+]([O-])c1cc(C(F)(F)F)c(N2CCN(c3cccc(C(F)(F)F)c3)CC2)cc1NC[P+]([O-])(O)O` the value was 1.8 µM; for `O=C(O)C1CCCN(c2cc(N3CCN(c4cccc(C(F)(F)F)c4)CC3)c([N+](=O)[O-])cc2C(F)(F)F)C1` (stereo not given), 2.8 µM.
One may read the clearance as a measure of how efficiently the substance is removed, as volume per time. What is called Tmax is the time at which the peak concentration occurs. What is called bioavailability is dose-corrected exposure relative to a reference, in per cent. Lower therefore signals little systemic uptake. What is called half-life is the time needed for the level to fall by half in the phase considered. Read a low half-life as fast loss. One may read the Cmax as the maximum level reached in the sampled fluid or tissue. With `COc1cccc(CNc2ccc(N3CCN(c4cccc(C(F)(F)F)c4)CC3)c(C(F)(F)F)c2)c1Oc1ccc([N+](=O)[O-])cc1C(=O)O`, in data set [2], the clearance came out at 0.624 L/h/kg. Moreover, the Vd in data set [3] was 1.33 L/kg. Besides, the Tmax in data set [4] came to 3 h. The compound also gave a bioavailability in data set [5] of 43%. Besides, in data set [6], the half-life is 2.8 h. Further, the IC50 in data set [1] was found to be 0.5 µM. The highest concentration (Cmax) in data set [7] stood at 0.48 µM.
In data set [1], `COc1cccc(CNc2ccc(N3CCN(c4cccc(C(F)(F)F)c4)CC3)c(C(F)(F)F)c2)c1Oc1ccc(C(=O)O)cn1` returned an IC50 of 0.9 µM.
On the same count and under the same terms, for `COc1cccc(CNc2ccc(N3CCN(c4cccc(C(F)(F)F)c4)CC3)c(C(F)(F)F)c2)c1Oc1c(C(=O)O)cc(Cl)cc1[N+](=O)[O-]` the value was 0.9 µM; for `O=C(O)c1ccc(CNc2cc(N3CCN(c4cccc(C(F)(F)F)c4)CC3)c([N+](=O)[O-])cc2C(F)(F)F)cc1`, 1.5 µM; for `O=C(O)C1CCCN(c2cccc(F)c2CNc2ccc(N3CCN(c4cccc(C(F)(F)F)c4)CC3)c(C(F)(F)F)c2)C1` (stereo not given), 1.7 µM.
Take `COC(=O)c1c(NCc2ccc(C(=O)O)cc2)ccc([N+](=O)[O-])c1N1CCN(c2cccc(C(F)(F)F)c2)CC1`: the IC50 in data set [1] is > 15 µM.
Still for that read-out and setting: then `O=C(O)C1CCN(c2c([N+](=O)[O-])ccc(F)c2CNc2ccc(N3CCN(c4cccc(C(F)(F)F)c4)CC3)c(C(F)(F)F)c2)CC1`, with 0.7 µM; and `O=C(O)C1CCCN1c1cc(N2CCN(c3cccc(C(F)(F)F)c3)CC2)c([N+](=O)[O-])cc1C(F)(F)F` (stereo not given), with 7.9 µM.
Consider `O=C(O)c1cc(Br)ccc1Oc1cccc(F)c1CNc1ccc(N2CCN(c3cccc(C(F)(F)F)c3)CC2)c(C(F)(F)F)c1`, for which, in data set [1], inhibition was half-maximal at 0.8 µM (IC50).
`O=C(O)C1CCN(c2cc(N3CCN(c4cccc(C(F)(F)F)c4)CC3)c([N+](=O)[O-])cc2C(F)(F)F)CC1` returned an IC50 in data set [1] of 0.91 µM.
The same measure, in the same setting: for `O=C(O)C1CCN(c2cc(N3CCN(c4c([N+](=O)[O-])ccc(C(F)(F)F)c4[N+](=O)[O-])CC3)c([N+](=O)[O-])cc2C(F)(F)F)CC1` the value was > 15 µM.
As for `CC(C)[C@@H]1CC[C@@H](C)C[C@H]1OCC(=O)Nc1cc(Oc2ccc(C(=O)O)cc2)ccc1[N+](=O)[O-]`, the clearance in data set [2] stood at 0.29 L/h/kg. Also, the Vd in data set [3] is 0.4 L/kg. Moreover, in data set [4], the Tmax was 3 h. Also, in data set [5], the bioavailability came out at 23%. In addition, the half-life in data set [6] is 3 h. In data set [7], this compound gave a Cmax of 0.16 µM.
In data set [1], `O=C(O)c1ccc(CNc2cc(N3CCN(c4cccc(C(F)(F)F)c4)CC3)ccc2[N+](=O)[O-])cc1` came in with an IC50 of 2.8 µM. In other words, the single-digit micromolar range.
Compound `O=C(O)C1CCN(c2cc(N3CCN(c4cccc(C(F)(F)F)c4)CC3)c(C(F)(F)F)cc2[N+](=O)[O-])CC1` came in with an IC50 in data set [1] of 0.88 µM.
